Measurements: PMC11764660, “Self-Assembled Peptide Hydrogels PPI45 and PPI47: Novel Drug Candidates for Staphylococcus aureus Infection Treatment” (Gels, 2025)

Legend:
Format in all cases: cell-based, Staphylococcus aureus
S. aureus ATCC 43300 [1] = experiment: Time-dependent bactericidal kinetic curve (time-kill); conditions: 2× MIC, S. aureus ATCC 43300, start 1×10^5 CFU/mL, 37 °C, 250 rpm
Protocol: The mixture was subsequently incubated in a shaker at 37 °C and 250 rpm. At predetermined intervals (0, 0.5, 1, 2, 4, 6, 10, 22, and 24 h), 100 μL aliquots were withdrawn and subjected to serial 10-fold dilutions before being plated for colony counting.

S. aureus ATCC 43300 [2] = experiment: PAE assay; conditions: 2×MIC, 2 h exposure of 10^8 CFU/mL at 37 °C, 1000-fold dilution; time for tenfold increase of the colony count
Protocol: The mixture was subsequently incubated for 2 h at 37 °C and 250 rpm. Upon completion of the incubation period, 50 µL of the solution was withdrawn and diluted 1000-fold by adding […] of pre-warmed MHB, which was designated as the 0 h time point. Subsequently, samples were collected at 0, 0.5, 1, 2, 4, 6, 8, 10, 12, and 24 h. Each sample was subjected to 10-fold serial dilutions before being plated, and colony counts were performed. PBS served as the negative control. The time required for the colony count in each treatment group to increase tenfold relative to the post-reconstruction baseline was determined as PAE.

S. aureus ATCC43300 [3] = experiment: SEM observation of bacterial morphology; conditions: 2×MIC, 2 h, 37 °C, 10^8 CFU/mL
Protocol: This mixture was incubated at 37 °C for 2 h. The 0.01 M PBS (pH 7.4) served as the blank control. After being centrifugated at 4000 rpm for 5 min, the samples were carefully washed three times with 0.01 M PBS. Next, 1 mL of 2.5% glutaraldehyde was added to each sample and stored at 4 °C overnight. The samples were washed twice with distilled water and subsequently dehydrated through a series of ethanol solutions (50%, 70%, 85%, 95%, and 100%). Each sample received three treatments with 100% ethanol, followed by drying at the CO2 critical point, gold sputtering, and observation under a scanning electron microscope.

S. aureus ATCC43300 [4] = experiment: Cell membrane integrity analysis (PI, flow cytometry); conditions: 2×MIC, 37 °C, 10^8 CFU/mL
Protocol: The solution was incubated at 37 °C for 0.5, 1, 1.5, and 2 h, respectively, and 0.01 M PBS (pH 7.4) was used as a blank control. After the incubation periods, each sample was centrifugated at 4000 rpm for 5 min. Subsequently, 400 µL of the supernatant was removed, and 400 µL of sterile PBS was added. The samples were washed twice and then resuspended with PBS to a final volume of 450 µL. A 50 µL volume of PI staining solution (500 µg/mL) was added, and the samples were incubated for 15 min in the dark. Finally, the cells fixed with PI were analyzed using flow cytometry.

S. aureus ATCC 43300 [5] = experiment: Membrane potential (DiSC3(5)); conditions: DiSC3(5) fluorescence, 1×, 2×, 4× MIC, 30 min, 37 °C, three replicates
Protocol: The fluorescent probe DiSC3(5) (0.5 mM) was co-incubated with PBS (10^8 CFU/mL) of S. aureus for 30 min at 37 °C. A total of 180 µL of bacteria carrying fluorescent probes and 20 µL of peptide solution at varying concentrations were added to 96-well plates and incubated for 30 min at 37 °C. The sample treated with PBS served as the negative control, and each concentration was set as three replicates. The alterations in fluorescence (excitation wavelength: 620 nm, emission wavelength: 670 nm) were monitored in real time over a period of 30 min using a multifunctional enzyme-labeling instrument.

## CC1COc2c(N3CCN(C)CC3)c(F)cc3c(=O)c(C(=O)O)cn1c23 (centres unmarked) [ofloxacin, Ofloxacin]
S. aureus ATCC 43300 [1]
  bacterial count at 6 h: 2 log10 CFU/mL
  bacterial count at 24 h: 4.15 log10 CFU/mL
S. aureus ATCC 43300 [2]
  post-antibiotic effect (PAE): 0.77 h
S. aureus ATCC43300 [3]
  morphological changes of the bacteria by SEM: crumpled appearance with leakage of intracellular contents
S. aureus ATCC43300 [4]; 1 h
  membrane penetration rate (PI-positive bacteria): 0.26%
S. aureus ATCC43300 [4]; 1.5 h
  membrane penetration rate (PI-positive bacteria): 0.7%
S. aureus ATCC43300 [4]; 2 h
  membrane penetration rate (PI-positive bacteria): 1.13%

## nisin
S. aureus ATCC 43300 [5]
  effect on membrane potential: depolarization
